Measurements reported in patent publication EP2716637A1, “MANGIFERIN AGLYCONE CRYSTAL FORM I AND PREPARATION METHOD THEREOF” (Kunming Pharmaceutical Corp., priority 2011, dated 2012).
Like-named read-outs stand apart in the source and are kept apart here. Values belong to the molecule of their own block, whether it stands above or below them.

Legend:
[1] = Active destructing test (stability) with HPLC analysis; format: physicochemical
Description: Active destructing test of mangiferin aglycone crystal form I: high purity mangiferin aglycone obtained in the same batch was respectively subjected to the following treatments: • (1) Destruction by strong acid: 0.5 mg sample was precisely weighed in a 50 ml measuring flask, and 1 ml of 0.1 mol/L hydrochloric acid aqueous solution was added, mixed evenly, and was allowed to stand for 48 hours at 20~30°C; • (2) Destruction by strong base: 0.5 mg sample was precisely weighed in a 50 ml measuring flask, and 1 ml of 0.1 mol/L sodium hydroxide aqueous solution was added, mixed evenly, and was allowed to stand for 48 hours at 20~30°C; • (3) Destruction by strong oxidant: 0.5 mg sample was precisely weighed in a 50 ml measuring flask, and 1 ml of 10% aqueous solution of hydrogen peroxide (H2O2) was added, mixed evenly, and was allowed to stand for 48 hours at 20~30°C; • (4) Destruction by high temperature: 0.5 mg sample was precisely weighed in a 50 ml measuring flask, and was allowed to stand for 48 hours at 100°C; • (5) Destruction by strong light: 0.5 mg sample was precisely weighed in a 50 ml measuring flask, and was allowed to stand for 240 hours under strong light condition of 4500±500 lux. The above-mentioned testing samples were taken out at specified time points, and methanol was added to dissolve and diluted the sample to the scale mark, shook well, then […] samples were analyzed by HPLC.
Stability test of mangiferin aglycone crystal form I

[2] = Stability of solutions in alkaline phosphate buffer, content by HPLC; format: physicochemical; details: for remaining at 2 h / remaining at 4 h / remaining at 6 h / remaining at 8 h / remaining at 12 h: phosphate buffer, read-out: content of mangiferin aglycone
Description: Appropriate amounts of mangiferin aglycone crystal form I and mangiferin aglycone were taken respectively, and phosphate buffer of pH 8.0, pH 9.0 and pH 10.0 were added respectively, metered to 100 ml, and were allowed to stand at 37°C, and samples were taken at 2, 4, 6, 8 and 12 hours respectively, and the content of mangiferin aglycone were measured by HPLC method. Stability of solution of mangiferin aglycone crystal form I

[3] = Blood concentration after oral (intragastric) administration to Beagle dogs; format: in vivo; details: for concentration: listed as Commercially available mangiferin aglycone
Description: Solid powder of mangiferin aglycone crystal form I and commercially available mangiferin aglycone (reference substance of mangiferin aglycone, purchased from Sigma Corporation, Lot No.: 8420-201002) were administered to Beagle dogs intragastrically respectively. The dosage of administration was 6mg/kg, and arterial blood of the dogs was drawn at different time points after administration to determine the content of mangiferin aglycone (See Table 4 and Figure 6). Table 4. Comparison of blood concentrations at different time points after mangiferin aglycone samples were administered orally to Beagle dogs

[4] = system: C57BL/6 normal mice and ob/ob diabetes model mice; details: cited from earlier work
[5] = molecular target: T1, recombinant humanized protein tyrosine phosphatase 1B (Homo sapiens, UniProt P18031); details: reported from CN200910184185.5; cited from earlier work
T1 sequence (P18031 1-435): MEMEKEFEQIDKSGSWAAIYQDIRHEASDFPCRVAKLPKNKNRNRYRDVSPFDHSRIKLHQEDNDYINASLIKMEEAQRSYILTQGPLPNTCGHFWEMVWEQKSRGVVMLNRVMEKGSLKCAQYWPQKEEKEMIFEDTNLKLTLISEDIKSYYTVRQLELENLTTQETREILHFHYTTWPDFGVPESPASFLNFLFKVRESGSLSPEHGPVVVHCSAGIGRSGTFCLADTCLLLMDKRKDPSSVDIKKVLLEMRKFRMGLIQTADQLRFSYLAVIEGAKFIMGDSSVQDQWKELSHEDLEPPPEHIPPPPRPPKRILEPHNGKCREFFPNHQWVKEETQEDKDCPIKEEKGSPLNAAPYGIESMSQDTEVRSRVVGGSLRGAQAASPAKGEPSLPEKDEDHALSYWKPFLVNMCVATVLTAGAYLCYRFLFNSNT

C57BL/6 normal mouse = details: reported from CN200810196777.4, cited from earlier work
[6] = destructing by high temperature: 48 hours at 100°C
[7] = destructing by strong acid: 0.1 mol/L hydrochloric acid, 48 hours at 20~30°C
[8] = destructing by strong base: 0.1 mol/L sodium hydroxide, 48 hours at 20~30°C
[9] = destructing by strong light: 240 hours at 4500±500 lux
[10] = destructing by strong oxidant: 10% hydrogen peroxide, 48 hours at 20~30°C

stability to light, moisture, heat ([1]; conclusion from the active destructing test): stable
peak area of mangiferin aglycone [1, 6]: 233
peak area of mangiferin aglycone [1, 7]: 234
peak area of mangiferin aglycone [1, 8]: 0
peak area of mangiferin aglycone [1, 9]: 234
peak area of mangiferin aglycone [1, 10]: 215
situations of other degradation products [1, 10]: One new degradation product was found
peak area of mangiferin aglycone ([1]; undestructed (baseline sample)): 234
stability of solution ([2]; different alkaline phosphate buffer solutions, compared with mangiferin aglycone): better
remaining at 2 h ([2]; pH 8, phosphate buffer pH8, 37°C, standing time 2h): 98.6%
remaining at 4 h ([2]; pH 8, phosphate buffer pH8, 37°C, standing time 4h): 98.4%
remaining at 6 h ([2]; pH 8, phosphate buffer pH8, 37°C, standing time 6h): 98.3%
remaining at 8 h ([2]; pH 8, phosphate buffer pH8, 37°C, standing time 8h): 98.2%
remaining at 12 h ([2]; pH 8, phosphate buffer pH8, 37°C, standing time 12h): 97.5%
remaining at 2 h ([2]; pH 9, phosphate buffer pH9, 37°C, standing time 2h): 98.5%
remaining at 4 h ([2]; pH 9, phosphate buffer pH9, 37°C, standing time 4h): 98.2%
remaining at 6 h ([2]; pH 9, phosphate buffer pH9, 37°C, standing time 6h): 98%
remaining at 8 h ([2]; pH 9, phosphate buffer pH9, 37°C, standing time 8h): 97.8%
remaining at 12 h ([2]; pH 9, phosphate buffer pH9, 37°C, standing time 12h): 97.2%
remaining at 2 h ([2]; pH 10, phosphate buffer pH10, 37°C, standing time 2h): 97.2%
remaining at 4 h ([2]; pH 10, phosphate buffer pH10, 37°C, standing time 4h): 97.4%
remaining at 6 h ([2]; pH 10, phosphate buffer pH10, 37°C, standing time 6h): 97%
remaining at 8 h ([2]; pH 10, phosphate buffer pH10, 37°C, standing time 8h): 96.3%
remaining at 12 h ([2]; pH 10, phosphate buffer pH10, 37°C, standing time 12h): 95%
concentration at 0.25 h ([3]; dog, serum, po, 6 mg/kg, intragastrically, 6mg/kg, solid powder, 0.25 hr, read-out: Mangiferin aglycone concentration in serum): 721 nM
concentration at 0.5 h ([3]; dog, serum, po, 6 mg/kg, intragastrically, 6mg/kg, solid powder, 0.5 hr, read-out: Mangiferin aglycone concentration in serum): 470 nM
concentration at 0.75 h ([3]; dog, serum, po, 6 mg/kg, intragastrically, 6mg/kg, solid powder, 0.75 hr, read-out: Mangiferin aglycone concentration in serum): 601 nM
concentration at 1 h ([3]; dog, serum, po, 6 mg/kg, intragastrically, 6mg/kg, solid powder, 1 hr, read-out: Mangiferin aglycone concentration in serum): 387 nM
concentration at 1.5 h ([3]; dog, serum, po, 6 mg/kg, intragastrically, 6mg/kg, solid powder, 1.5 hr, read-out: Mangiferin aglycone concentration in serum): 163 nM
concentration at 2 h ([3]; dog, serum, po, 6 mg/kg, intragastrically, 6mg/kg, solid powder, 2 hr, read-out: Mangiferin aglycone concentration in serum): 158 nM
concentration at 3 h ([3]; dog, serum, po, 6 mg/kg, intragastrically, 6mg/kg, solid powder, 3 hr, read-out: Mangiferin aglycone concentration in serum): 119 nM
concentration at 4 h ([3]; dog, serum, po, 6 mg/kg, intragastrically, 6mg/kg, solid powder, 4 hr, read-out: Mangiferin aglycone concentration in serum): 96 nM
concentration at 6 h ([3]; dog, serum, po, 6 mg/kg, intragastrically, 6mg/kg, solid powder, 6 hr, read-out: Mangiferin aglycone concentration in serum): 84.4 nM
concentration at 8 h ([3]; dog, serum, po, 6 mg/kg, intragastrically, 6mg/kg, solid powder, 8 hr, read-out: Mangiferin aglycone concentration in serum): 80.8 nM
oral bioavailability ([3]; same oral dosage, compared with commercially available mangiferin aglycone): higher
SMILES: O=c1c2cc(O)c(O)cc2oc2cc(O)cc(O)c12 [mangiferin aglycone crystal form I, 1,3,6,7-tetrahydroxyxanthone]
situations of other degradation products [1, 6]: No new peak for degradation product was found
situations of other degradation products [1, 7]: No new peak for degradation product was found
situations of other degradation products [1, 8]: UV shift occurred, and there were many peaks for degradation products
situations of other degradation products [1, 9]: No peak for degradation product was found
situations of other degradation products ([1]; undestructed (baseline sample)): No new peak for degradation product was found

content of mangiferin aglycone ([2]; phosphate buffer pH8, 37°C, standing time 2h, 120 min): 98.5%
content of mangiferin aglycone ([2]; phosphate buffer pH8, 37°C, standing time 4h, 240 min): 97.5%
content of mangiferin aglycone ([2]; phosphate buffer pH8, 37°C, standing time 6h, 360 min): 96.3%
content of mangiferin aglycone ([2]; phosphate buffer pH8, 37°C, standing time 8h, 480 min): 94.5%
content of mangiferin aglycone ([2]; phosphate buffer pH8, 37°C, standing time 12h, 720 min): 93.2%
content of mangiferin aglycone ([2]; phosphate buffer pH9, 37°C, standing time 2h, 120 min): 97.3%
content of mangiferin aglycone ([2]; phosphate buffer pH9, 37°C, standing time 4h, 240 min): 94.3%
content of mangiferin aglycone ([2]; phosphate buffer pH9, 37°C, standing time 6h, 360 min): 93.4%
content of mangiferin aglycone ([2]; phosphate buffer pH9, 37°C, standing time 8h, 480 min): 92.3%
content of mangiferin aglycone ([2]; phosphate buffer pH9, 37°C, standing time 12h, 720 min): 91.0%
content of mangiferin aglycone ([2]; phosphate buffer pH10, 37°C, standing time 2h, 120 min): 97.7%
content of mangiferin aglycone ([2]; phosphate buffer pH10, 37°C, standing time 4h, 240 min): 93.8%
content of mangiferin aglycone ([2]; phosphate buffer pH10, 37°C, standing time 6h, 360 min): 92.1%
content of mangiferin aglycone ([2]; phosphate buffer pH10, 37°C, standing time 8h, 480 min): 91.0%
content of mangiferin aglycone ([2]; phosphate buffer pH10, 37°C, standing time 12h, 720 min): 90.3%
concentration ([3]; intragastrically, 6mg/kg, solid powder, 0.25 hr, 6 mg/kg, 15 min, read-out: Mangiferin aglycone concentration in serum): 666 nM
concentration ([3]; intragastrically, 6mg/kg, solid powder, 0.5 hr, 6 mg/kg, 30 min, read-out: Mangiferin aglycone concentration in serum): 404 nM
concentration ([3]; intragastrically, 6mg/kg, solid powder, 0.75 hr, 6 mg/kg, 45 min, read-out: Mangiferin aglycone concentration in serum): 414 nM
concentration ([3]; intragastrically, 6mg/kg, solid powder, 1 hr, 6 mg/kg, 60 min, read-out: Mangiferin aglycone concentration in serum): 366 nM
concentration ([3]; intragastrically, 6mg/kg, solid powder, 1.5 hr, 6 mg/kg, 90 min, read-out: Mangiferin aglycone concentration in serum): 136 nM
concentration ([3]; intragastrically, 6mg/kg, solid powder, 2 hr, 6 mg/kg, 120 min, read-out: Mangiferin aglycone concentration in serum): 108 nM
concentration ([3]; intragastrically, 6mg/kg, solid powder, 3 hr, 6 mg/kg, 180 min, read-out: Mangiferin aglycone concentration in serum): 100 nM
concentration ([3]; intragastrically, 6mg/kg, solid powder, 4 hr, 6 mg/kg, 240 min, read-out: Mangiferin aglycone concentration in serum): 70.1 nM
concentration ([3]; intragastrically, 6mg/kg, solid powder, 6 hr, 6 mg/kg, 360 min, read-out: Mangiferin aglycone concentration in serum): 52.6 nM
concentration ([3]; intragastrically, 6mg/kg, solid powder, 8 hr, 6 mg/kg, 480 min, read-out: Mangiferin aglycone concentration in serum): 41.3 nM
blood concentration ([3]; same oral dosage, compared with mangiferin aglycone crystal form I): significantly lower
SMILES: O=c1c2cc(O)c(O)cc2oc2cc(O)cc(O)c12 [mangiferin aglycone, 1,3,6,7-tetrahydroxyxanthone]
blood glucose of the experimental animal [4]: reduce
sensitivity to insulin [4]: significantly improve
type of inhibition [5]: competitive inhibitor
in vivo secretion of insulin induced by glucose (C57BL/6 normal mouse; C57BL/6-normal mouse): increase
IGTT (C57BL/6 normal mouse; C57BL/6 normal mouse): significantly improve
